We go through ten compounds from article PMC2217226 (The Journal of General Physiology, 2000).

“Also recorded” adds a separate entry of the source. Read-outs that look alike come from different tables or passages of the source.

One data set has as its system SACs. The settings on record: cited from earlier work.
In data set [1] the test system is SACs (cation-selective stretch-activated channels) in outside-out patches from adult rat astrocytes. In words: SAC activity in outside-out patches, pressure-activated, patch clamp. The class given is cell-based.
The test system of data set [2] is rabbit hearts, atrial fibrillation associated with dilatation. The settings on record: ref Bode et al. 1999; cited from earlier work.
Data set [3] concerns swelling-activated whole-cell current in adult astrocytes. The class given is cell-based, rat.
A short description of data set [4]: Overall charge of the toxin. The class given is physicochemical. The settings on record: from the sequence.
Data set [5] deals with normal electrical activity of the heart, rabbit. The settings on record: Langendorff-perfused rabbit hearts, preliminary; ref Bode et al. 1999; cited from earlier work.
The subject of data set [6] is ICl,swell (outwardly rectifying Cl^− current), rabbit CHF ventricular myocytes. Description: Swelling-activated anion current in CHF ventricular myocytes, perforated patch. The class given is cell-based.
Data set [7] concerns whole-cell current of rabbit CHF ventricular myocytes in 1.5T hypertonic saline. The class given is cell-based. The settings on record: 0.4 μM GsMTx-4, 1.5T hypertonic saline, averages from five cells.
The subject of data set [8] is voltage-sensitive whole-cell currents of astrocytes. Description: Voltage-sensitive whole-cell currents, perforated patch. It is filed as cell-based, rat. The settings on record: concentration not printed at place.
Data set [9] deals with ventricular myocytes from rabbits with aortic regurgitation-induced CHF. Description: Myocyte cell volume during perforated patch voltage clamp. It is filed as cell-based, rabbit.
The subject of another data set is NMDA channel. The settings on record: ref Bender et al. 1998; cited from earlier work.
In data set [10] the test system is glutamate-stimulated K^+ influx in neonatal astrocytes. The settings on record: ref Bender et al. 1998; cited from earlier work.
The next data set relates to K^+ channel. The settings on record: Fig. 8 legend; ref Swartz and MacKinnon 1995; cited from earlier work.
A further data set has as its system E-type Ca^2+ channels. The settings on record: Fig. 8 legend; ref Newcomb et al. 1998; cited from earlier work.
Data set [11] concerns endogenous SACs in oocytes. The settings on record: ref Lane et al., 1991; cited from earlier work.
Data set [12] relates to SACs in audiovestibular hair cells. The settings on record: ref Jorgensen and Ohmori 1988; cited from earlier work.
The test system of the next data set is epithelial Na^+ channels. The settings on record: no separate reference printed; cited from earlier work.
In data set [13] the test system is swelling-activated anion current in astrocytoma cells. The settings on record: ref Bakhramov et al. 1995; cited from earlier work.
Where [14] appears, read: introduction, ref Hamill and McBride 1996, Sachs and Morris 1998.

Consider `COc1ccc([C@@H]2Sc3ccccc3N(CCN(C)C)C(=O)[C@@H]2OC(C)=O)cc1` [Diltiazem], for which the “blocking activity against SACs” value in the data set on SACs (setting [14]) is “low affinity blocking activity”.

Take GsMTx-4: in data set [1] (from data of Fig. 6, outside-out patches, −50 mV), the “I/I0 (ratio of blocked to unblocked current)” value is given as 0.083. Moreover, the “dissociation rate constant k d” value in [1] (from washout time constant, n = 7 patches) is 0.21 s⁻¹. Moreover, the “state dependence of block” value in [1] (mechanism of action, closed channels) is given as “can act on closed channels”. For the same compound, the “block of SACs” value in data set [1] (outside-out patches, 1:1,000 dilution, 8 μg/ml, rapid upon superfusion) is on record as “the block was complete”. In addition, the “suppression of cardiac arrhythmias” value in data set [2] is recorded as “ability to suppress cardiac arrhythmias”. In [3] (5 μM GsMTx-4, 30 s after hypotonic exposure), the “effect on peak swelling-activated current (in words)” value was “significantly reduced the peak current response”. The “reduction in peak swelling-activated current” value in data set [3] (5 μM GsMTx-4, 30 s, after subtracting resting current, representative cell (Fig. 9 C)) is reported as about 75%. Moreover, the “change in reversal potential of swelling-activated current” value in data set [3] (5 μM GsMTx-4, statistically indistinguishable from 0 mV) is recorded as “+2 mV”. The “reduction in swelling-activated anion current” value in data set [3] (adult astrocytes, discussion) is on record as 40–50%. Also, the “reduction in swelling-activated whole-cell current” value in data set [3] (hypotonically swollen astrocytes, potential not printed at place) is about 40%. In addition, the “recovery of swelling currents after washout” value in [3] (∼4 min after washout of 5 μM GsMTx-4) was “partially recovered”. Further, in [4], the overall charge result is recorded as “+5”. For the same compound, the “effect on normal electrical activity of the heart” value in data set [5] was “doesn't block normal electrical activity of the heart”. Further, the “effect on ICl,swell” value in [6] (0.4 μM GsMTx-4, isotonic (1.0T), averages from five cells) is given as “no effect”. Also, in data set [6] (rabbit dilated cardiomyopathy model, concentration not printed at place), the “effect on anion current” value is on record as “did not affect the anion current”. Besides, the “effect on whole-cell current” value in [7] is “unaffected; also recorded: did not affect membrane currents”. Besides, in data set [8], the “activity against voltage-sensitive whole-cell currents” value is on record as “no effect on whole-cell voltage-sensitive currents; also recorded: did not effect voltage-sensitive currents; also recorded: negligible activity”. In addition, the cell volume reduction in data set [9] (0.4 μM GsMTx-4, 1.0T solution, averages from five cells) is given as 7%. The “cell volume after osmotic shrinkage” value in data set [9] (0.4 μM GsMTx-4, 1.5T solution, averages from five cells) was “unaffected”. In addition, in [9] (0.4 μM GsMTx-4, isotonic), the “cell volume reduction relative to that produced by 1.5T saline” value is on record as about 40%.

Take `C[C@]12N[C@H](Cc3ccccc31)c1ccccc12` [MK801]: the “affinity as NMDA open-channel blocker” value in the data set on NMDA channel is listed as “nanomolar affinity”. Also, the “effect on glutamate-stimulated K^+ influx” value in data set [10] is “inhibits glutamate-stimulated K^+ influx”.

In the case of Hanatoxin, the “K^+ channel block” value with K^+ channel is “K^+ channel blocker”.

As for `CC[N+](CC)(CC)CC` [tetraethylammonium], in the data set with SACs, the “blocking activity against SACs” value is “low affinity blocking activity”.

As for `COC(=O)C1=C(C)NC(C)=C(C(=O)OC)C1c1ccccc1[N+](=O)[O-]` [Nifedipine, reference compound], the “Activity on astrocyte SACs” value in [1] was “No block”.

Consider `N[C@@H](CCC(=O)O)C(=O)O` [Glutamate, reference compound], for which, in data set [1] (10 μM, n = 2 trials, outside-out patches at −50 mV), the “Activity on astrocyte SACs” value is listed as “No activation”. The “activation of SACs in unstretched patches” value in [1] (10 μM, unstretched patches that contained SACs) is “did not activate SACs”.

“SNX-482: peptide toxin that blocks E-type Ca^2+ channels (GVDKAGCRYMFGGCSVNDDCCPRLGCHSLFSYCAWDLTFSD; UniProt P56854 1-41, looked up)”: in the data set with E-type Ca^2+ channels, the “E-type Ca^2+ channel block” value is given as “blocks E-type Ca^2+ channels”.

As to `N=C(N)NC(=O)c1nc(Cl)c(N)nc1N` [Amiloride], the “block of endogenous SACs in oocytes” value in [11] is given as “blocks”. Moreover, in [12], the “block of SACs in audiovestibular hair cells” value is listed as “blocks”. The “affinity for epithelial Na^+ channels” value in the data set with epithelial Na^+ channels is on record as “nanomolar affinity”. The “blocking activity against SACs” value in the data set on SACs (setting [14]) is recorded as “low affinity blocking activity”.

For the compound `O=S(=O)(O)c1cc(N=C=S)ccc1C=Cc1ccc(N=C=S)cc1S(=O)(=O)O` [DIDS, 4,4′-diisothiocyanatostilbene-2,2′-disulphonic acid, reference compound], the “effect on swelling-activated current (in words)” value in data set [3] (50 μM DIDS, 30 s hypotonic saline, especially at depolarized potentials, n = 6) was “significant reduction in current”. For the same compound, the “reduction of swelling-activated anion current” value in data set [13] is “significant reduction”.
